Reference: US6441205B1, “Synthetic precursors to 4-(P-methoxyphenyl)-2-amino-butane” (Council of Scientific and Industrial Research, priority 2000, dated 2002)
Where two headings read alike, the source gives them in different places.

What was measured:
[1] = test system: 4th instar larvae of Spilarctia obliqua; assay: feeding deterrency (antifeedant) bioassay, diet-mix method; type: in vivo, Spilarctia obliqua (Bihar hairy caterpillar); conditions: for % feeding deterrency: diet-mix, fecal pellets after 24 hours; for antifeedant activity (in words): bioassay studies
Method: (§1) The compound having formula (1) was evaluated as feeding deterrent and growth inhibitor against 4th in star larvae of spilarctia obliqua (Bihar hairy caterpillar). This insect attacks more than twenty cash crops like urd, moong, arhar, mint and coleus etc. Several synthetic insecticides like quinalphos, Phosphamidon and synthetic pyrethroids are commercially used to manage this insect pest. But, the insect is developing resistance towards some of these insecticides. Therefore, it has now become imperative to search for new ecologically safe, environmentally sound and non-toxic chemicals to manage this pest.
(§2) With compound having formula (1) insect feeding deterrency and growth inhibition was tested by diet-mix method. In this method, 4-(p-methoxyphenyl)-2-aminobutane the compound having formula (1) was dissolved in acetone to make various concentrations ranging from 1000 to 5000 ppm. Test solution was mixed in the artificial diet of the insect so that each gram of diet contained 60-300 μg of the compound (1). 4th in star larva (newly molted) starved four hours, was weighed and released on treated artificial diet in thirty replications. In control, only solvent acetone was mixed and azadirachtin at 1000 ppm concentration was taken as standard for feeding bioassay. After 24 hours, number of fecal pellets produced were counted, and the data were analyzed for % feeding deterrency. Some experiments were continued for next 24 hours and weights of the larva were taken daily. After 3 days, experiment was discontinued and weight gain or loss was analyzed for % growth inhibition.
Diflubenzuron at 5 ppm was taken as a standard in case of growth inhibitory assay. The test result of compound having formula (1) in terms of its feeding deterrency and growth inhibition as compared to standards azadirachtin and diflubenzuron are given in table 1.

[2] = test system: 4th instar larvae of Spilarctia obliqua; assay: growth inhibition bioassay, diet-mix method; type: in vivo, Spilarctia obliqua (Bihar hairy caterpillar); conditions: bioassay studies
Method: as §1
as §2, with “In control, only solvent acetone was mixed and azadirachtin at 1000 ppm concentration was taken as standard for feeding bioassay.” left out, “Some experiments were continued for next 24 hours and weights of the larva were taken daily.” left out, “inhibition. […]” for “inhibition.”

[3] = sensitivity to light (UV and sunlight); type: physicochemical; conditions: both UV and sunlight
[4] = exposure to sun light; cited from earlier work

| SMILES | % feeding deterrency ([1]; 1000 ppm) [%] | % feeding deterrency ([1]; 2000 ppm) [%] | % feeding deterrency ([1]; 3000 ppm) [%] | % feeding deterrency ([1]; 4000 ppm) [%] | % feeding deterrency ([1]; 5000 ppm) [%] | antifeedant activity (in words) [1] | growth inhibition activity (in words) [2] | sensitivity to light [3] | sensitivity to light [4] |
| --- | --- | --- | --- | --- | --- | --- | --- | --- | --- |
| COc1ccc(CCC(C)N)cc1 (stereo not drawn) [Compound 1, 4-(p-methoxyphenyl)-2-amino butane] | 32.0 | 40.0 | 64.0 | 82.0 | 100.0 | significant activity | significant activity | not sensitive to light |  |
| CC(O)CCc1ccc(O)cc1 (stereo not drawn) [compound (2), 4-(p-hydroxyphenyl)-butan-2-ol] |  |  |  |  |  | not found to be active | not found to be active |  |  |
| C/C=C(\C)C(=O)O[C@H]1C[C@@H](OC(C)=O)[C@@]2(C(=O)OC)CO[C@H]3[C@@H](O)[C@@](C)([C@]45O[C@@]4(C)[C@H]4C[C@@H]5O[C@@H]5OC=C[C@@]54O)[C@H]4[C@]1(CO[C@]4(O)C(=O)OC)[C@@H]32 [Azadirachtin, reference compound] | 100.0 |  |  |  |  |  |  |  | photosensitive |
